IC50 data for one compound are collected here from US20230192646A1, “DIHYDRO-CYCLOPENTA-ISOQUINOLINE DERIVATIVES” (UCB Biopharma SRL, priority 2019, published 2023).

SMILES strings stand for the structures.

The target in this experiment is T1, IgE-Tb / sFcεR1α-AF488 (WT soluble IgE receptor FcεR1α) (Homo sapiens, UniProt P01854, N146Q/N252Q, form not given).
T1 construct: fused on or other part: LanthaScreen amine-reactive terbium chelate, chemically conjugated (about 4 Tb per IgE-Fc); a label, not a fusion
The experiment can be described thus: In vitro FRET assay of IgE-Tb binding to sFcεR1α-AF488 (WT), 18 hours incubation (examples 17-35, 48-52 and 63). Conditions: 0.75 nM IgE-Tb, 0.9 nM sFcεR1α-AF488; 18 hours at room temperature; read-out: FRET IC50 range. As to the method: 86 nmoles of IgE-Fc(N265Q, N371Q) (Young et al., 1995) at 172 μM in 100 mM NaHCO3, pH 9.5 was added to 1 mg of LanthaScreen™ Amine Reactive Tb Chelate (ThermoFisher catalogue number PV3583) and incubated for 16 hours at 20° C. The material was then buffer exchanged into Phosphate Buffered Saline (being, 137 mM NaCl, 2.7 mM KCl, 10 mM Na2HPO4, 1.8 mM K2HPO4, pH 7.4) and the material quantified and the degree of Tb conjugation determined by measuring the absorption at 280 nm and 343 nm.
To a solution of 1.32 μmoles WT FcεR1α, at 377 μM, in 100 mM NaOAc pH 5.5, was slowly added 50 mM sodium periodate (70 μL) in 100 mM NaOAc, pH 5.5, with gentle mixing, to give a final concentration of 1 mM. […]
175 nmoles of protein was added to 1 mg of Alexa Fluor™ 488 hydrazide (Invitrogen) and incubated for 18 hours at 22° C. with gentle mixing. […] The material was quantified, and the degree of Alexa Fluor™ 488 conjugation determined by measuring the absorption at 280 nm and 497 nm. […]
The aim was to measure binding of IgE-Tb to receptor, and the inhibition thereof by compounds, using an in vitro Fluorescence Resonance Energy Transfer (FRET) Assay. […]
Measurement of FRET for each well was carried out by exciting at 337 nm and measuring emission at 490/520 nm using a PHERAstar FSX plate reader (BMG Labtech). FRET ratio was calculated as follows: […]

T1 sequence (P01854 whole entry C105A/N146Q/N252Q, form open, the tested form may be a part): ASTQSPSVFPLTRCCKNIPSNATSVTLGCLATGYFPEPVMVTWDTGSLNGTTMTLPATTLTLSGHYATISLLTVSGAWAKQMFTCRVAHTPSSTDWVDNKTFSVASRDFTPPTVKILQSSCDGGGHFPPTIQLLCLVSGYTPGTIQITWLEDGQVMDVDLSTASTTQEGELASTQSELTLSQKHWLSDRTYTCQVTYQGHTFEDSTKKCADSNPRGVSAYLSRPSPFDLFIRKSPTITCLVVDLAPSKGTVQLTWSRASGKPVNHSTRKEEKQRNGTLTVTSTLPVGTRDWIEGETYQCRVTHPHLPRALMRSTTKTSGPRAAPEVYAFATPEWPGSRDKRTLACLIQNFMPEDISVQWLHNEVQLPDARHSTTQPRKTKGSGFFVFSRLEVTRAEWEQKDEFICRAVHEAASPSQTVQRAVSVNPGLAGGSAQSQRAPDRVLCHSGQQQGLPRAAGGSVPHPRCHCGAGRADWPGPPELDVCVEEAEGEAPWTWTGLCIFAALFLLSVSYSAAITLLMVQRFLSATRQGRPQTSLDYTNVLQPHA

One may read the IC50 as the midpoint of a concentration-inhibition curve. With `COc1ccc(CNC(=O)N[C@H]2C[C@H](Nc3cncc(OC)c3)c3c2cc(S(=O)(=O)NCC(C)C)c2cc(C4CC4)ncc32)cc1` (racemic) [Example 18, 1-[(4-methoxyphenyl)methyl]-3-[trans-(7R,9RS)-3-cyclopropyl-9-[(5-methoxypyridin-3-yl)amino]-5-(2-methylpropylsulfamoyl)-8,9-dihydro-7H-cyclopenta[h]isoquinolin-7-yl]urea], the IC50 lay within 1 to 10 nM.
